# Results: patent publication US10391070B2, “Compositions and methods for treating neurological diseases or injury” (MUSC FOUNDATION FOR RESEARCH DEVELOPMENT, priority 2012, dated 2019)
# Assays:
# HT22 cells [1] = assay: Glutathione determination in glutamate-treated cells; assay type: cell-based, mouse; conditions: HT22, 10 mM glutamate 8 hrs
# Experimental: The content of total glutathione (reduced and oxidized) in the supernatant of cell homogenate was measured using the glutathione assay kit (Cayman Chemical) in microtiter plate assay, which utilizes an enzymatic recycling method, using glutathione reductase, for the quantification of glutathione. The sulfhydryl group of glutathione reacted with 5,5′-dithiobis-2-nitrobenzoic acid (DTNB) and produced a yellow-colored 5-thio-2-nitrobenzoic acid (TNB), which was measured at 405 nm.
# HT-22 neuronal cells = assay: Respirometry (OCR, ECAR; Seahorse XF-96); assay type: cell-based, mouse; parameters: ECAR (glycolysis), difference from control: unit not given here; conditions: HT-22 cells, mean±SEM
# Experimental: Oxygen consumption rates (OCR) and extracellular acidification rates (ECAR) of HT-22 neuronal cells were performed on the XF-96 Extracellular Flux Analyzer (Seahorse Bioscience) using standard methods (Beeson et al., 2010). In brief, cells were cultured in 96 well Seahorse plates in DMEM high glucose media (Invitrogen) supplemented with 10% FBS, 10 mM HEPES, and 1% antibiotic-antimycotic (Invitrogen). The media was replaced with DMEM media supplemented with 25 mM glucose, 10 mM sodium pyruvate, 31 mM NaCl, and 2 mM glutamine at pH 7.4. Each of the four drug ports on the Seahorse sensor cartridge were filled with test compound (media only, 5 μM NQN-1, 10 μM VK3 or 12.5 μM MB), 10 μM oligomycin, 1 μM FCCP, and 5 μM rotenone, which were injected into each well at 20, 80, 110, and 135 min, respectively. The pmol/min OCR rate for each well (9-52 wells/group) was measured. Wells were excluded from the analysis if their OCR values surpassed the Tukey Outlier Rule. In order to standardize the OCR rates across wells, the average OCR value at 17 min (last time point prior to injection of the test compounds) for each experimental group was calculated, and set to 100. All OCR values are given as a percentage of this pre-treatment value. […]
# PTZ-induced seizures = assay: PTZ-induced seizure (swim activity) model in zebrafish larvae; assay type: in vivo, zebrafish (Danio rerio)
# Experimental: The DanioVision locomotion tracking instrument with Ethovision XT software (Noldus) was used to measure the severity of the seizures by quantifying the locomotor activity of each fish.
# In a 48-well plate, one 6-7 dpf larva was added per well. Compounds were given at a sub-lethal dose and treated for 1 h. Three control rows were included—tank water (TW) only, PTZ only and PTZ+VPA (2-4 mM final concentration of VPA). […] After 5 min, the plate was transferred to the Daniovision apparatus and the chamber light was turned on. After 2 min, Ethovision was used to determine the distance traveled (a marker of seizure of activity) by each fish for 15 min (25 frames per second). Velocity, duration of movement, and frequency of movement were also determined from the same recording. After measurement, fish were monitored visually for survival. The distance moved over the recording period with Ethovision XT software (Noldus) was averaged over 8 wells per treatment unless the fish was not detected.
# In a 48-well plate, one 7 dpf zebrafish was added per well. Larvae were dosed with each compound at a sub-lethal dose 1 h prior to PTZ treatment. Three control rows were included with each experiment—tank water only control, PTZ only and PTZ+VPA (4 mM final concentration of VPA). […] After 5 min, the plate was transferred to the Daniovision instrument (Noldus Information Technology) and the chamber light was turned on. After 2 min, MediaRecorder (Noldus) was used to record video for 15 min. A small number of videos were acquired 25 frames per second, but the majority of the data was acquired at the frame rate of 60 frames per second. After recording, fish were monitored visually for survival. Ethovision XT software (Noldus) was used to track the fish movement from the video images in order to calculate the total distance traveled over 15 min. […] All experimental comparisons were made between animals from the same clutch.
# zebrafish larvae = assay: Zebrafish larval toxicity (NOEC, lethal dose); assay type: in vivo; conditions: 7 dpf zebrafish larvae; highest sub-lethal dose
# Experimental: Using a 96-well plate, one zebrafish larva (7 dpf) was placed in each well in 100 μL of tank water (TW). 100 μL of each compound (0.5-15 μM) was then added to each well for 12 animals (one row) to give a final volume of 200 […]. A control row was tested for DMSO toxicity effects. […] Each drug was assessed for the no observed effect concentration (NOEC), the highest non-lethal dose resulting in no apparent toxic effects.
# Zebrafish (AB strain) were obtained from the Zebrafish International Resource Center (supported by P40 RR012546 from NIH-NCRR). Zebrafish were maintained and crossed according to standard methods (Westerfield, 2000). Fertilized eggs were collected and placed in E3 embryo medium and positioned in an incubator set at 28.5° C. with a 14/10 h light/dark cycle (Kimmel et al., 1995). To determine the lethal dose of each compound, 96-well plates containing one zebrafish (7 days post-fertilization, dpf) per well in 100 μL of tank water were used. 100 μL of each compound (0.5 to 15 μM) was added to each well for 12 animals (one row) for a final volume of 200 μL. One row of larvae was used as DMSO only controls. […] All zebrafish studies were approved by the Medical University of South Carolina Institutional Animal Care and Use Committee (AR #2850) and performed in accordance with the guidelines.
# Using a 96-well plate, one zebrafish larva (7 dpf) was placed in each well in 100 μL of tank water. 100 μL of each compound was then added to each well for 12 animals (one row) for a final volume of 200 μL. One row of zebrafish larvae was used as DMSO only controls. […] Toxicity was also measured in the mouse model by the NIH Anticonvulsant Screening Program at the National Institute of Neurological Disorders and Stroke (Stables and Kupferberg, 1997), according to the established NIH experimental procedures. Compounds were delivered into mice by intraperitoneal (i.p.) injection at a dose of 100 mg/kg in sterile 5% DMSO, 95% Neobee (Josey et al., 2013). Acute toxicity was assessed by monitoring the animals for impaired neuromuscular function by placing treated mice on a rod rotating at 6 rpm. […]
# c-fos = c-fos gene expression in PTZ-treated zebrafish larvae; assay type: in vivo, zebrafish (Danio rerio); conditions: 7 dpf zebrafish, pre-treatment
# Experimental: Ten 7 dpf larvae were placed in 500 μL tank water in wells of a 48-well cell-culture plate and appropriate concentrations of drugs were added as in the behavior study (Table 9). After a 1 h pre-incubation period, PTZ was added to a final concentration of 15 mM in appropriate wells and larvae were incubated for a further 45 min. Fish were quickly euthanized by incubating the plate in an ice-water bath for 15 min. Fish were removed from each well and all liquid removed before freezing at −80° C. RNA was extracted using Trizol (Invitrogen) followed by the RNeasy Mini kit (Qiagen). Frozen embryos were homogenized in 800 μL Trizol using in-tube pestles and a motorized homogenizer. Following a 5-min incubation at room temperature, 200 μL chloroform was added and the samples were centrifuged at 12,000 g for 10 min. The aqueous phase was transferred to a new tube and 250 μL 100% ethanol was added and the samples mixed. This mixture was then transferred to the Qiagen minicolumn assembly and the protocol followed as described with the kit. Samples were eluted in 30 μL RNase free water and concentration was determined using the Nanodrop instrument (Thermo Fisher). cDNA was prepared using the RETROscript kit (Ambion) with 500 ng total RNA. cDNA was then diluted 1:1 with sterile dH2O and 2.5 μL of this cDNA was used in the QPCR reaction with SsoAdvanced SYBR Green Supermix (BioRad) and c-fos primers designed to span an intron-exon junction (c-fos F: […], SEQ ID NO:9; c-fos R: […], SEQ ID NO:10) ([…] each) in the BioRad CFX96 RealTime instrument. L13a and EF1a gene expression were used for normalization (Rahn et al., 2013). The following cycle conditions were used: 95° C./3 min, 40 cycles of 95° C./15 s, 62° C./30 s, followed by 95° C. 30 s and a dissociation curve. Samples were run in duplicate. The 2^−ΔΔCt method was used to quantify gene expression, whereby all gene Ct values were first normalized to Ct values of the geometric mean of the Ct of L13a and EF1a (Livak and Schmittgen, 2001). Treated samples were then normalized to the tank water control and converted to fold change.
# [2] = Antioxidant activity assay (DPPH free radical scavenging); conditions: 20 μM, 100 μM DPPH in methanol
# Experimental: Antioxidant activity of various reagents was assayed as previously described by monitoring the disappearance of the optical absorbance of the stable-free radical DPPH on reaction with test compounds (Blois, 1958). The rate of the reaction represents the antioxidant potency of test agents. The known free radical scavenger Trolox and ascorbic acid were used as positive controls. Briefly, 10 μL of test reagents at final concentrations of 20 μM were added to 200 μL of 100 μM DPPH in methanol. Optical absorbance of DPPH at 517 nm was immediately monitored for 10 min.
# HT22 cells [3] = assay: t-BuOOH toxicity protection (MTS cell viability); assay type: cell-based, mouse; conditions: HT22, 50 μM t-BuOOH
# Experimental: Cell viability was assessed by the ability of the viable cells to metabolize 3-(4,5-dimethylthiazol-2-yl)-5-(3-carboxymethoxyphenyl)-2(4-sulfophenyl)2-H-tetrazolium, inner salt (MTS), as described previously (Cory et al., 1991). The metabolism of tetrazolium salts is often used to measure cellular proliferation, but in the system used here, it has been previously shown to correlate well with cell viability as determined by trypan blue exclusion and colony-forming assays (Davis and Maher, 1994). Briefly, HT-22 cells were seeded onto 96-well plates at 5.0×10^3 cells per well in 75 μL of medium and maintained at 37° C. in 5% CO2 overnight prior to the initiation of experimental treatments. For glutamate toxicity testing, cells were subsequently treated with 25 μL of medium containing glutamate (monosodium glutamate, Sigma, 1 M stock concentration in media, to achieve a final concentration of 10 mM) plus inhibitors (stock in DMSO) and maintained at 37° C. in 5% CO2. For t-BuOOH toxicity testing, cells were subsequently treated with 25 μL of medium containing t-BuOOH (Sigma, 10 mM stock concentration, to achieve a final concentration of 50 μM) plus inhibitors (stock in DMSO) and maintained at 37° C. in 5% CO2 for 3 hours, after which the media was removed, cells washed gently with HBSS, the media replaced with standard culture media, and the cells returned to incubation at 37° C. in 5% CO2. For both glutamate and t-BuOOH treatments, 10 μl of MTS solution was added to each well 24 hrs after initial treatment, and the cells were maintained in growth medium for 2 h at 37° C. Absorbance at 490 nm was subsequently measured by a SpectraMax 190 plate reader (Molecular Devices). The growth medium without cells in the presence of MTS solution was used as solution background and untreated cells were considered the controls. Cell viability was calculated as a percentage compared with untreated controls. EC50 determinations were based on 12-point titrations using GraphPad Prism, and each experiment was repeated at least four times. Morphology of HT22 cells following treatments was determined by phase-contrast microscopy. Digital images of cells grown on cell culture plates were captured at 10× magnification.
# In light of the findings that the protection against glutamate induced cell death provided by VK2, 2q, and 2j, are at least partially mediated by the attenuation of the increased production of endogenous ROS, the inventors also examined the effects of these compounds on tert-butylhydroperoxide (t-BuOOH) induced cell death. t-BuOOH is a short chain analog of the lipid hydroperoxides formed from peroxidation reactions during oxidative stress that is cytotoxic to cells (Lemasters and Nieminen, 1997). […] It is well documented that cells undergo rapid and extensive fragmentation in the early stages of cell death (Bossy-Wetzel et al., 2003; Frank et al., 2001; Breckenridge et al., 2008; Jagasia et al., 2005; Lee et al., 2004). Recent studies have shown that mitochondrial fragmentation is regulated by the translocation of dynamin-related protein 1 (Drp1) from the cytosol to the mitochondria, where it assembles to form spirals at division sites (Smirnova et al., 2001). Although the exact molecular mechanism is still not well studied, the activity of Drp1 is regulated by the phosphorylation and dephosphorylation of specific serine residues by protein kinases and phosphatases such as calcineurin and the PGAM5 (Wang et al., 2012; Chang et al., 2007). […]
smiles,measurement,setting,value
"COC1=C(OC)C(=O)C(CCCCCCCCCCO)=C(C)C1=O [Ideb, Idebenone]",depletion of total cellular GSH,HT22 cells [1]; 5 μM,did not prevent GSH depletion
"CN(C)c1ccc2nc3ccc(=[N+](C)C)cc-3sc2c1.[Cl-] [MB, reference compound]","basal cellular respiration, difference in OCR from control","HT-22 neuronal cells; 1 h treatment, OCR as percentage of pre-treatment value",53.21±5.92
same,"basal mitochondrial respiration, difference from control",HT-22 neuronal cells; basal minus non-mitochondrial (rotenone),19.22±6.54
same,"ATP-linked respiration, difference from control",HT-22 neuronal cells; basal minus oligomycin,19.76±6.59
same,"ECAR (glycolysis), difference from control",HT-22 neuronal cells,−0.86±1.26
"CN1C(=O)C(Cc2c[nH]c3ccccc23)NC1=S (stereo not shown) [Nec-1, Necrostatin-1]",depletion of total cellular GSH,HT22 cells [1]; 50 μM,did not prevent GSH depletion
"CCCC(CCC)C(=O)O [Valproic Acid (VPA), 2-n-propylpentanoic acid]",required concentration for reduction of seizures,PTZ-induced seizures; PTZ-treated zebrafish larvae,4 mM
same,Seizure suppression,"PTZ-induced seizures; PTZ-treated zebrafish larvae, pretreated 1 hr at NOEC",Yes
same,PTZ-induced swim activity (distance traveled),"PTZ-induced seizures; zebrafish larvae, 1 h pretreatment at sub-lethal concentration (VPA 4 mM, NQN-1 3 μM), 15 mM PTZ",significantly reduced distance traveled compared to PTZ alone
same,Highest concentration tested for anti-seizure activity,zebrafish larvae,4 mM
same,PTZ-induced increase in c-fos expression,c-fos,able to blunt this increase in expression
O=C1O[C@H]([C@@H](O)CO)C(O)=C1O [ascorbic acid],free radical scavenging capacity (DPPH absorbance),[2],rapidly scavenged DPPH
COC1=C(OC)C(=O)C(C/C=C(\C)CC/C=C(\C)CC/C=C(\C)CC/C=C(\C)CC/C=C(\C)CC/C=C(\C)CC/C=C(\C)CC/C=C(\C)CC/C=C(\C)CCC=C(C)C)=C(C)C1=O [co-enzyme Q10],protection from t-BuOOH induced cell death,HT22 cells [3],less effective
